Results reported in US20220023454A1, “PHOTODYNAMIC METHOD TO DECONTAMINATE SURFACES” (priority 2020, published 2022).

Experiments:
FCV = assay: Virus added to light-preexposed Ph-B solution, cell culture titration; parameters: species or system feline calicivirus; details: 50 μM Phloxin-B pre-exposed to blue LED light 1-10 min; 1 to 5 min contact
Description: (§1) Several 50 μM stocks of Phloxin-B solution are prepared (500 μL each). Each stock is pre-exposed to the blue LED light for specific times (e.g., 1, 2, 3, 5, and 10 min). Immediately after light exposure, 50 μL of the tested virus (FCV, TuV, and TGEV) is added to the light-preexposed Ph-B solution for about 1 to 5 min contact times before titrating the surviving virus using a cell culture assay. A >3 log reduction in the virus titer is observed.

Tulane virus (TuV) = assay: Photodynamic inactivation of TuV in water with photosensitizer and light; details: for efficacy against TuV: photodynamic treatment, under the conditions tested (10, 25, 50 μM PS; light exposure)
Description: (§2) The inactivation of HuNoV surrogates (e.g., feline calicivirus (FCV) and Tulane virus (TuV)) was studied, by exposure to light in the presence of photosensitizer dyes in water, FCV and TuV were mixed with different concentrations (10, 25, and 50 μM) of three different PS (Rose Bengal (RB), Phloxine B (Ph-B) and chlorophyllin) and then exposed to light for a period of time, e.g., 1, 3, 5, or 10 minutes. While not being limited to a mode of action, capsid integrity and/or genome integrity may be impacted by the exposure of viruses to light in the presence of the PS.
(§3) Shellfish and fresh produce are the most frequent foods implicated in human norovirus (HuNoV) outbreaks in the US. Decontamination of virus-contaminated waters used in depuration of oysters, clams or mussels, and in post-harvest washing of fresh produce, is a mitigation strategy for this human biothreat risk. […] Although the PDT has been studied extensively for bacterial inactivation, studies on its use for viral inactivation in food and water are scarce. Inactivation of >4 log TCID50 of two HuNoV surrogates (feline calicivirus (FCV) and Tulane virus (TuV)) in water was observed upon exposure to LED-blue light for 3 to 10 min using Rose Bengal (RB) or Phloxine-B (Ph-B) as photosensitizers. The virucidal effect of PDT may depend on the type of treated virus, the light source, the type and concentration of the photosensitizer (PS), and the operational parameters such as the distance between the light source and treated object and/or exposure time.

[1] = test system: Gram positive or Gram negative bacterial suspension, e.g., E. coli, Salmonella enterica, Staphylococcus aureus, or Bacillus subtilis; assay: Decontamination of lettuce leaves and stainless-steel discs spiked with bacteria, blue LED light, agar plate count; details: 50 μM Phloxin-B, 1 cm distance, blue LED 1, 3, 5, and 10 minutes; lettuce leaf or stainless-steel surface
Description: Romaine lettuce leaves are cut into small squares (2×2 cm) and then are disinfected using 300 ppm sodium hypochlorite followed by rinsing three times with sterilized distilled water. Sterile stainless-steel discs are also used as a model for surface decontamination. Each sample is spiked with 50 μL of a Gram positive or Gram negative bacterial suspension, e.g., E. coli, Salmonella enterica, Staphylococcus aureus, or Bacillus subtilis, then dried for 30 minutes. 100 μL of a 50 μM Phloxin-B solution is then added to each spiked leaf or stainless-steel surface. The samples are exposed at a 1 cm distance to the blue LED light source for 1, 3, 5, and 10 minutes. After each exposure time any surviving bacterial cells are recovered in 500 μL of recovery buffer followed by vortexing for 0.5 to 1 minute. The surviving bacterial cells are enumerated using Agar plate count technique. A ≥3 log reduction in the bacterial cell counts is observed.

feline calicivirus (FCV) = assay: Photodynamic inactivation of FCV in water with photosensitizer and light; details: for log reduction in FCV: 3 minute exposure; for efficacy against FCV: photodynamic treatment, under the conditions tested (10, 25, 50 μM PS; light exposure)
Description: as §2, §3

TGEV = assay: Virus added to light-preexposed Ph-B solution, cell culture titration; parameters: species or system transmissible gastroenteritis virus; details: 50 μM Phloxin-B pre-exposed to blue LED light 1-10 min; 1 to 5 min contact
Description: as §1

TuV = assay: as above; parameters: species or system Tulane virus; details: 50 μM Phloxin-B pre-exposed to blue LED light 1-10 min; 1 to 5 min contact
Description: as §1

Molecule | log reduction in the virus titer (FCV) (FCV) [log] | log reduction in TuV (Tulane virus (TuV); 5 minute exposure, 50 μM Ph-B) [log] | efficacy against TuV (Tulane virus (TuV)) | log reduction in the bacterial cell counts [1] [log] | log reduction in FCV (feline calicivirus (FCV); 50 μM Ph-B) [log] | efficacy against FCV (feline calicivirus (FCV)) | log reduction in the virus titer (TGEV) (TGEV) [log] | log reduction in the virus titer (TuV) (TuV) [log] | log reduction in TuV (Tulane virus (TuV); 10 minute exposure, 50 μM RB) [log] | log reduction in FCV (feline calicivirus (FCV); 25 μM RB) [log]
O=C([O-])c1c(Cl)c(Cl)c(Cl)c(Cl)c1-c1c2cc(Br)c(=O)c(Br)c-2oc2c(Br)c([O-])c(Br)cc12.[Na+].[Na+] [Ph-B, Phloxine B] | > 3 | 4 | high efficacy | ≥ 3 | 4 | high efficacy | > 3 | > 3 | – | –
O=C1OC2(c3cc(I)c(O)c(I)c3Oc3c2cc(I)c(O)c3I)c2c(Cl)c(Cl)c(Cl)c(Cl)c21 [RB, Rose Bengal] | – | – | high efficacy | – | – | high efficacy | – | – | 4 | 4
chlorophyllin | – | – | – | – | – | low efficacy | – | – | – | –
